For 11 compounds, ALP, Ca and P results are on record in patent US5216183A, “Cyclopentanone/cyclopentenone derivative” (Teijin Limited, priority 1988, dated 1993).

The test system of the assay is human osteoblasts (KK-3, 18PDL). The experiment in a line: Measurement of bone formation activity (KK-3, 14 days). Type of assay: cell-based. As to the method:
Human osteoblasts (KK-3, 18PDL) were cultured in an α-MEM containing 10% fetal calf serum. After the growth became stationary, the compound was added in a given concentration in the presence of 2 mM α-glycerophosphate and treated for 14 days. The cell phase was washed with physiological saline, and the alkaline phosphatase activity (ALP) was measured through the absorption of OD415. Then, calcium (Ca) and phosphorus (P) were extracted with a 2N hydrochloric acid and quantitatively determined.

The mark [1] stands for this setting: Table 26, 10^-6 M, control 0.27 ± 0.04.
The mark [2] stands for this setting: Table 26, 10^-6 M, control 30.68 ± 3.33.
Setting [3] is: Table 26, 10^-6 M, control 45.61 ± 6.19.
Where [4] appears, read: Table 26, 10^-7 M, control 0.27 ± 0.04.
Setting [5] is: Table 26, 10^-7 M, control 45.61 ± 6.19.
The mark [6] stands for this setting: Table 30, 10^-6 M, control 0.60 ± 0.02.
The mark [7] stands for this setting: Table 30, 10^-6 M, control 3.00 ± 1.73.
The mark [8] stands for this setting: Table 30, 10^-7 M, control 0.60 ± 0.02.
Setting [9] is: Table 30, 10^-7 M, control 3.00 ± 1.73.
Setting [10] is: Table 30, 10^-7 M, control 5.33 ± 1.15.
The mark [11] stands for this setting: Table 28, 10^-6 M, control 4.33 ± 0.58.
Setting [12] is: Table 33, 10^-5 M, control 0.80 ± 0.02.
Setting [13] is: Table 33, 10^-5 M, control 15.67 ± 1.53.
Where [14] appears, read: Table 33, 10^-5 M, control 22.67 ± 3.06.
[15] abbreviates: Table 33, 10^-6 M, control 0.80 ± 0.02.
The mark [16] stands for this setting: Table 33, 10^-6 M, control 22.67 ± 3.06.

Each structure is given as a SMILES string.

Turning to `CCCCC1=C(Sc2nccn2C)C(=O)C(=CC=CC(O)CCCO)C1(O)CCCCOc1ccccc1` (stereo not shown) [drawing 1079], the ALP is 0.12 ± 0.01 OD415 /dish (Table 31, 10^-7 M, control 0.18 ± 0.06) and 0.17 OD415 /dish (Table 31, 10^-8 M, control 0.18 ± 0.06). Moreover, the Ca worked out at 4.85 ± 0.84 μg/dish (Table 31, 10^-7 M, control 1.88 ± 0.31) and 2.46 μg/dish (Table 31, 10^-8 M, control 1.88 ± 0.31). The compound also yielded a P (Table 31, 10^-7 M, control 4.73 ± 0.37) of 6.68 ± 0.34 μg/dish.
With `CCOc1ccc2nc(SC3=CC(O)(CCCCOc4ccccc4)C(=CC=CC(O)CCCO)C3=O)sc2c1` (stereo not shown) [drawing 1068], the ALP is, setting by setting: under setting [1], 0.10 ± 0.01 OD413 /dish; under setting [4], 0.34 ± 0.06 OD413 /dish. This compound also came in with a P under setting [2] of 41.45 ± 7.21 μg/dish. The Ca by setting is: under setting [3], 81.88 ± 8.47 μg/dish; under setting [5], 61.19 μg/dish.
As to `Cn1ccnc1SC1=CC(O)(CCCCOc2ccccc2)C(=Cc2ccc(CC(CO)CO)cc2)C1=O` (stereo not shown), the ALP worked out at 0.08 OD415 /dish under setting [6] and 0.66 ± 0.03 OD415 /dish under setting [8]. Moreover, the Ca turned out to be 116.00 μg/dish under setting [7] and 11.00 ± 1.73 μg/dish under setting [9]. This compound returned a P under setting [10] of 11.67 ± 1.15 μg/dish.
As to `CSC1=CC(O)(CCCCOc2ccccc2)C(C(/C=C/C(O)CCCO)OC(=O)OC(C)C)C1=O` (stereo not shown), the ALP is, setting by setting: (Table 35, 10^-5 M, control 1.23 ± 0.02) 0.18 OD415 /dish; (Table 35, 10^-6 M, control 1.23 ± 0.02) 1.22 ± 0.06 OD415 /dish. In addition, the Ca is 109.67 μg/dish (Table 35, 10^-5 M, control 3.00 ± 1.00) and 25.00 ± 1.73 μg/dish (Table 35, 10^-6 M, control 3.00 ± 1.00). The P (Table 35, 10^-6 M, control 5.67 ± 0.58) was determined as 19.67 ± 1.15 μg/dish.
As for `Cn1ccnc1SC1=CC(O)(CCCCOc2ccccc2)C(C(O)C=CC(O)CCCO)C1=O` (stereo not shown) [drawing 1072], the ALP is on record as 0.76 ± 0.08 OD413 /dish (Table 28, 10^-6 M, control 0.72 ± 0.01) and 0.81 OD413 /dish (Table 28, 10^-7 M, control 0.72 ± 0.01). For the same compound, the Ca came out at 26.17 ± 3.25 μg/dish under setting [11] and 1.17 μg/dish (Table 28, 10^-7 M, control 4.33 ± 0.58). Under setting [11], this compound returned a P of 19.33 ± 2.02 μg/dish.
Take `Cn1ccnc1SC1=CC(O)(CCCCOc2ccccc2)C(=CC=CC2(O)CCCCC2)C1=O` (stereo not shown): the ALP came to 0.11 OD415 /dish under setting [6] and 0.58 ± 0.03 OD415 /dish under setting [8]. Further, the Ca is, setting by setting: under setting [7], 85.67 μg/dish; under setting [9], 14.00 ± 1.00 μg/dish. The P under setting [10] amounted to 12.67 ± 1.15 μg/dish.
For the compound `COC(=O)CCCC#CCC1C(=O)C(SC)=CC1(O)CCCCOc1ccccc1` (stereo not shown), the ALP stood at 0.98 ± 0.08 OD415 /dish under setting [12] and 0.90 OD415 /dish under setting [15]. Besides, the P under setting [13] was 35.33 ± 0.58 μg/dish. Further, the Ca is, setting by setting: under setting [14], 58.67 ± 1.53 μg/dish; under setting [16], 24.33 ± 1.53 μg/dish.
For the compound `Cn1ccnc1SC1=CC(O)(CCCCOc2ccccc2)C(=C/C=C/CO)C1=O` (stereo not shown), the ALP is 1.18 OD415 /dish (Table 36, 10^-6 M, control 1.17 ± 0.03) and 1.20 ± 0.03 OD415 /dish (Table 36, 10^-7 M, control 1.17 ± 0.03). Besides, the Ca (Table 36, 10^-6 M, control 2.33 ± 1.15) came to 37.33 μg/dish and the Ca (Table 36, 10^-7 M, control 2.33 ± 1.15) is reported as 2.33 ± 0.58 μg/dish. Under “Table 36, 10^-7 M, control 5.00 ± 0.00”, this compound showed a P of 4.33 ± 0.58 μg/dish.
With `CSC1=CC(O)C(=CC=CC(O)CCCO)C1=O` (stereo not shown) [drawing 1082], the ALP by setting is: (Table 32, 10^-5 M, control 0.80 ± 0.01) 0.53 OD415 /dish; (Table 32, 10^-6 M, control 0.80 ± 0.01) 0.81 ± 0.06 OD415 /dish. Besides, the Ca reads like this: (Table 32, 10^-5 M, control 23.00 ± 1.00) 57.33 ± 2.08 μg/dish; (Table 32, 10^-6 M, control 23.00 ± 1.00) 23.00 ± 3.46 μg/dish. This compound also came in with a P (Table 32, 10^-6 M, control 15.67 ± 0.58) of 16.33 ± 2.08 μg/dish.
Take `O=C1C(Sc2ccccn2)=CC(O)(CCCCOc2ccccc2)C1=CC=CC(O)CCCO` (stereo not shown): the ALP came to 0.36 ± 0.12 OD413 /dish under setting [1] and 0.29 ± 0.04 OD413 /dish under setting [4]. This compound also returned a P under setting [2] of 42.28 ± 6.99 μg/dish. The Ca runs as follows: under setting [3], 70.42 ± 7.82 μg/dish; under setting [5], 56.85 μg/dish.
On to `CSC1=CC(CCCCOc2ccccc2)C(=C/C=C/C(O)CCCO)C1=O` (stereo not shown), for which the ALP reads like this: under setting [12], 0.79 ± 0.02 OD415 /dish; under setting [15], 0.76 OD415 /dish. Besides, under setting [13], the P was 31.00 ± 1.00 μg/dish. The Ca reads like this: under setting [14], 50.67 ± 1.15 μg/dish; under setting [16], 19.67 ± 2.52 μg/dish.
